pEC50: −log10 of the molar value. Read-outs that look alike come from different tables or passages of the source.

The target of test [1] is GluN2B glutamate receptors expressed in mammalian cells (Homo sapiens (Human), UniProt Q05586+Q13224). Nature of the test: Whole-cell patch clamp of mammalian cells (Ionworks Barracuda), positive allosteric modulation, GluN2B. The test is classed as cell-based. The settings on record: for Emax: read-out: GluN2B PCA EMax (%). As to the method: (§1) NMDA potentiation in mammalian cells which expressed NMDA receptors was assessed using the automatic patch-clamp system can be used determine the NAM activity of compounds as described below. An whole cell patch-clamp system can be used determine the PAM activity of compounds as described below.
GluN2B glutamate receptors expressed in mammalian cells, sequence (Q13224 27-1484, other chains not shown): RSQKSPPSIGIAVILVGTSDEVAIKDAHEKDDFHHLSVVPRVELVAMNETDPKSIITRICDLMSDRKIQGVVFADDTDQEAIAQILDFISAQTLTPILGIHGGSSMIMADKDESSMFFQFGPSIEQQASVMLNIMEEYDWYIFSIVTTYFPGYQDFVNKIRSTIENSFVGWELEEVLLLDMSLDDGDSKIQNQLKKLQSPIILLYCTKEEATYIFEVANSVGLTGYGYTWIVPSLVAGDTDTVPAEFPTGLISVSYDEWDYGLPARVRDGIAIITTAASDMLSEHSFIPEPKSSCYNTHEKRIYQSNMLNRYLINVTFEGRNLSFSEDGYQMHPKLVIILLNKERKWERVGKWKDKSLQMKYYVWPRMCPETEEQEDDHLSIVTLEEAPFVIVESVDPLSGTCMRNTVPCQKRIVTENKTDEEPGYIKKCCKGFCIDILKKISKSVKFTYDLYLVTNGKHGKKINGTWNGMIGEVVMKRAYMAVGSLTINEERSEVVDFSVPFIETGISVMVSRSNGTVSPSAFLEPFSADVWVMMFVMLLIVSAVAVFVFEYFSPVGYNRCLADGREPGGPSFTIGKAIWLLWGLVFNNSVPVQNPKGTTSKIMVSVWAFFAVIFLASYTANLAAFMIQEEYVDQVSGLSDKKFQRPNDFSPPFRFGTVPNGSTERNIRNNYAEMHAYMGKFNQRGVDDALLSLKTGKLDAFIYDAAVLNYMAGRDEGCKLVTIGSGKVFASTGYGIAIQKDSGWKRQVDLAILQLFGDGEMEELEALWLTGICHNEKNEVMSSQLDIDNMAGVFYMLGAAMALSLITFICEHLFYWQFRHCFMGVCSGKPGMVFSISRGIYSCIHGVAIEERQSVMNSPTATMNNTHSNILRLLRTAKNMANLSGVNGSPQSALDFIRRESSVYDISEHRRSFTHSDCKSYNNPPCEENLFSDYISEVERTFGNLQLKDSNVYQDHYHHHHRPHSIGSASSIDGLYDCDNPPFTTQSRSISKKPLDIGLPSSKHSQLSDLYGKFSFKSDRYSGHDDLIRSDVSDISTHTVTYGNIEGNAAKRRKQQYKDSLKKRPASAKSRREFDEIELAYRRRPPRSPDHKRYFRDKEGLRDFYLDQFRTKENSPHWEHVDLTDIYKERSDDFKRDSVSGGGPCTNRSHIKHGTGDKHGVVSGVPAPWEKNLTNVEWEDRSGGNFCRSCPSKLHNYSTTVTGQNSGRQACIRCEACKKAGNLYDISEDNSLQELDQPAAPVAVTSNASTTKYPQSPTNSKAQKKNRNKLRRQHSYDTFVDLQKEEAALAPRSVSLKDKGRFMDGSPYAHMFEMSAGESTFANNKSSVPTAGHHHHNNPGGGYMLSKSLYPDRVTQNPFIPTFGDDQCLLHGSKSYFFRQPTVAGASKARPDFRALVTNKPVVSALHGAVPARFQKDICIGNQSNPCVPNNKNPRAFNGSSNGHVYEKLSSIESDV
(§2) The measurements were performed using Ion Works Barracuda platform following this procedure:
(§3) Electrophysiological Procedures: • a) Intracellular solution (mM): 50 mM CsCl, 90 mM CsF, 2 mM MgCl2, 5 mM EGTA, 10 mM HEPES. Adjust to pH 7.2 with CsOH. • b) Extracellular solution, HB-PS (composition in mM): NaCl, 137; KCl, 1.0; CaCl2, 5; HEPES, 10; Glucose, 10; pH adjusted to 7.4 with NaOH (refrigerated until use). • c) Holding potential: −70 mV, potential during agonist/PAM application: −40 mV.
(§4) Recording Procedure: • a) Extracellular buffer will be loaded into the PPC plate wells (11 μL per well). Cell suspension will be pipetted into the wells (9 μL per well) of the PPC planar electrode. • b) Whole-cell recording configuration will be established via patch perforation with membrane currents recorded by on-board patch clamp amplifiers. • c) Two recordings (scans) will be performed. First, during pre-application of test article alone (duration of pre-application—5 min) and second, during test articles and agonist (EC20 L-glutamate and 30 μM glycine) co-application to detect positive modulatory effects of the test article.
(§5) Test Article Administration: The first pre-application will consist of the addition of 20 μL of 2× concentrated test article solution and, second, of 20 μL of 1× concentrated test article and agonist at 10 μL/s (2 second total application time).
(§6) Potentiating Effect of Positive Allosteric Modulators (PAM) on the Channel
(§7) The maximal amplitude of the evoked currents are measured and defined as Peak Current Amplitude (PCA).
Background: Patch clamp records ionic current or voltage across a cell membrane.

For test [2], the target named is GluN1/GluN2A glutamate receptors (human GRIN1/GRIN2A) expressed in HEK293 cells (Homo sapiens (Human), UniProt Q05586+Q12879). Nature of the test: Whole-cell patch clamp of mammalian cells (Ionworks Barracuda), positive allosteric modulation, GluN1/GluN2A. In kind it is cell-based. The settings on record: for Emax: read-out: GluN2A PCA EMax (%). The protocol: as §1, §2, §3, §4, §5, §6, §7
GluN1/GluN2A glutamate receptors (human GRIN1/GRIN2A) expressed in HEK293 cells, sequence (Q12879 whole entry, looked up, other chains not shown): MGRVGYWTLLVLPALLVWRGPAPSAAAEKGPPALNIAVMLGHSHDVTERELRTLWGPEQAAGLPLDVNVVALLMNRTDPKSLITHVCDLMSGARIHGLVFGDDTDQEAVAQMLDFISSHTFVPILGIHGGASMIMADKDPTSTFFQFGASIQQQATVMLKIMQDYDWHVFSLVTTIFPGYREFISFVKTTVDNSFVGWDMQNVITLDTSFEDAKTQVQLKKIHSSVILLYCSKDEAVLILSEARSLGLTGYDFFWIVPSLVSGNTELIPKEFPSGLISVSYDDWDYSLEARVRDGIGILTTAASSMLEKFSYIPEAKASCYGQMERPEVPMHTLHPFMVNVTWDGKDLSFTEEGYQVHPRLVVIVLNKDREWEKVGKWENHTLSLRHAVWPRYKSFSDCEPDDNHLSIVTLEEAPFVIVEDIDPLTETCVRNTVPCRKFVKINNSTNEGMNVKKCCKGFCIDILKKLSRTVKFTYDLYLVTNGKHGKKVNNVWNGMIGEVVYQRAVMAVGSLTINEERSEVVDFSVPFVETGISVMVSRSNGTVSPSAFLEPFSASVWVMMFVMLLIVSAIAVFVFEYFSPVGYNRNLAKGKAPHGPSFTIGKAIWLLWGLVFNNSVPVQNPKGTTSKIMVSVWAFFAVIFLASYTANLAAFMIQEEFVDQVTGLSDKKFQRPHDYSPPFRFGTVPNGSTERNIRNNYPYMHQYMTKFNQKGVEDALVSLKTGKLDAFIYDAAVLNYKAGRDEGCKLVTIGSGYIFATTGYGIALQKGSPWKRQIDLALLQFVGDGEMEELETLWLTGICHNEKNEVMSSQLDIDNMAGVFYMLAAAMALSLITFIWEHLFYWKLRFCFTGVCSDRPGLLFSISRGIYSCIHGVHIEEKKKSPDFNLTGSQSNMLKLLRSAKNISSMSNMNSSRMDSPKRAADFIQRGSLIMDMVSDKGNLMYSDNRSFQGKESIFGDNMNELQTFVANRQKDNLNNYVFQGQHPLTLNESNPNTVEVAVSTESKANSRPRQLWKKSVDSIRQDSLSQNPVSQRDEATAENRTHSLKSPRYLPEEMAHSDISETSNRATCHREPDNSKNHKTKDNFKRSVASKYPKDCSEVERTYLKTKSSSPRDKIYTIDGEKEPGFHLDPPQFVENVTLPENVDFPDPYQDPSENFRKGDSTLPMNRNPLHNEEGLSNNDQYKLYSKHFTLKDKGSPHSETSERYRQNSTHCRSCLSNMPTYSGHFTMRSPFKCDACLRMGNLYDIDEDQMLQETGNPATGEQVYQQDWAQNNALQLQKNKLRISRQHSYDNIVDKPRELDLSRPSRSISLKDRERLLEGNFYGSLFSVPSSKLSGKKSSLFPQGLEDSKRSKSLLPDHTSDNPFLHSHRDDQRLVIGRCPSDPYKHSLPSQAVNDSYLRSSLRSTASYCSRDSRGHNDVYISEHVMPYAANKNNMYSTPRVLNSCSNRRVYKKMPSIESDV

Where [3] appears, read: peak current amplitude, co-application with EC20 L-glutamate and 30 μM glycine, read-out: GluN2B PCA EC50.
Where [4] appears, read: peak current amplitude, co-application with EC20 L-glutamate and 30 μM glycine.
[5] abbreviates: peak current amplitude, co-application with EC20 L-glutamate and 30 μM glycine, HEK293.
Setting [6] is: peak current amplitude, co-application with EC20 L-glutamate and 30 μM glycine, HEK293, read-out: GluN2A PCA EC50.

Turning to `CC[C@]1(O)CC[C@H]2C(=CC[C@@H]3[C@@H]2CC[C@]2(C)[C@@H]([C@H](C)[C@H](O)CCC(C)C)CC[C@@H]32)C1` [Compound 3, (3S,8R,9S,10R,13S,14S,17R)-3-ethyl-17-((2S,3R)-3-hydroxy-6-methylheptan-2-yl)-13-methyl-2,3,4,7,8,9,10,11,12,13,14,15,16,17-tetradecahydro-1H-cyclopenta[a]phenanthren-3-ol], the pEC50 in test [1] (setting [3]) and in test [2] was less than 6.00 in each case. Besides, the Emax in test [1] (setting [4]) and in test [2] (setting [5]) was less than 100% in each case.

Take `C[C@H]([C@H](O)C[C@H](O)c1ccccc1)[C@H]1CC[C@H]2[C@@H]3CC[C@H]4C[C@](O)(C(F)(F)F)CC[C@]4(C)[C@H]3CC[C@]12C` [Compound 13, (1S,3R,4S)-4-((3S,5S,8R,9S,10S,13S,14S,17R)-3-hydroxy-10,13-dimethyl-3-(trifluoromethyl)hexadecahydro-1H-cyclopenta[a]phenanthren-17-yl)-1-phenylpentane-1,3-diol]: the pEC50 in test [1] and in test [2] (setting [6]) was 7.00 to 9.00 each time. Moreover, the Emax (in general, the size of the effect at its maximum, as opposed to the concentration needed) in test [1] was 100 to 500%; in test [2] (setting [5]), less than 100%.

Turning to `CC[C@]1(O)CC[C@@]2(C)[C@@H](CC[C@@H]3[C@@H]2CC[C@]2(C)[C@@H]([C@H](C)[C@H](O)CCC(C)C)CC[C@@H]32)C1` [Compound 24, (3S,5S,8R,9S,10S,13S,14S,17R)-3-ethyl-17-((2S,3R)-3-hydroxy-6-methylheptan-2-yl)-10,13-dimethylhexadecahydro-1H-cyclopenta[a]phenanthren-3-ol], the pEC50 in test [1] and in test [2] (setting [6]) was less than 6.00 throughout. Besides, the Emax in test [1] and in test [2] (setting [5]) was less than 100% each time.

Take `C[C@@H]([C@H]1CC[C@H]2[C@@H]3CC[C@H]4C[C@](O)(C(F)(F)F)CC[C@]4(C)[C@H]3CC[C@]12C)[C@@H](O)C[C@H](O)c1ccccc1` [Compound 25, (1S,3S,4S)-4-((3S,5S,8R,9S,10S,13S,14S,17R)-3-hydroxy-10,13-dimethyl-3-(trifluoromethyl)hexadecahydro-1H-cyclopenta[a]phenanthren-17-yl)-1-phenylpentane-1,3-diol]: the negative-log EC50 (pEC50) in test [1] and in test [2] (setting [6]) was less than 6.00 each time. Further, the Emax in test [1] and in test [2] (setting [5]) was less than 100% throughout.

With `CC[C@]1(O)CC[C@H]2[C@@H](CC[C@@H]3[C@@H]2CC[C@]2(C)[C@@H]([C@H](C)[C@@H](O)CCC(C)C)CC[C@@H]32)C1` [Compound 28, (3S,5S,8R,9R,10S,13S,14S,17R)-3-ethyl-17-((2S,3S)-3-hydroxy-6-methylheptan-2-yl)-13-methylhexadecahydro-1H-cyclopenta[a]phenanthren-3-ol], the pEC50 in test [1] (setting [3]) and in test [2] was less than 6.00 in each case. The results for the Emax in test [1] (setting [4]) and in test [2] (setting [5]) were 100 to 500% and less than 100%, respectively.

On to `CC[C@]1(O)CC[C@@]2(C)[C@@H](CC[C@@H]3[C@@H]2CC[C@]2(C)[C@@H]([C@H](C)[C@@H](O)CCC(C)C)CC[C@@H]32)C1` [Compound 29, (3S,5S,8R,9S,10S,13S,14S,17R)-3-ethyl-17-((2S,3S)-3-hydroxy-6-methylheptan-2-yl)-10,13-dimethylhexadecahydro-1H-cyclopenta[a]phenanthren-3-ol], for which the pEC50 in test [1] and in test [2] (setting [6]) was less than 6.00 in each case. In addition, the Emax in test [1] and in test [2] (setting [5]) was less than 100% in each case.

As for `CC(C)CC[C@@H](O)[C@@H](C)[C@H]1CC[C@H]2[C@@H]3CC=C4C[C@@](C)(O)CC[C@]4(C)[C@H]3CC[C@]12C` [Compound 30, (3S,8S,9S,10R,13S,14S,17R)-17-((2S,3R)-3-hydroxy-6-methylheptan-2-yl)-3,10,13-trimethyl-2,3,4,7,8,9,10,11,12,13,14,15,16,17-tetradecahydro-1H-cyclopenta[a]phenanthren-3-ol], the pEC50 in test [1] (setting [3]) and in test [2] was less than 6.00 in each case. Besides, the Emax in test [1] (setting [4]) and in test [2] (setting [5]) was 100 to 500% throughout.

Consider `C[C@H]([C@H](O)C[C@@H](O)c1ccccc1)[C@H]1CC[C@H]2[C@@H]3CC[C@H]4C[C@](O)(C(F)(F)F)CC[C@]4(C)[C@H]3CC[C@]12C` [Compound 31, (1R,3R,4S)-4-((3S,5S,8R,9S,10S,13S,14S,17R)-3-hydroxy-10,13-dimethyl-3-(trifluoromethyl)hexadecahydro-1H-cyclopenta[a]phenanthren-17-yl)-1-phenylpentane-1,3-diol], for which the negative logarithm of the EC50 (pEC50) (as a rule, −log10 of the EC50, conventionally taken in molar units) in test [1] was 6.00 to 7.00; in test [2] (setting [6]), 7.00 to 9.00. Moreover, the maximal response (Emax) in test [1] and in test [2] (setting [5]) was 100 to 500% each time.

`CC(C)CC[C@@H](O)[C@@H](C)[C@H]1CC[C@H]2[C@@H]3CC[C@@H]4C[C@@](C)(O)CC[C@]4(C)[C@H]3CC[C@]12C` [Compound 36, (3S,5R,8R,9S,10S,13S,14S,17R)-17-((2S,3R)-3-hydroxy-6-methylheptan-2-yl)-3,10,13-trimethylhexadecahydro-1H-cyclopenta[a]phenanthren-3-ol]: the pEC50 in test [1] (setting [3]) and in test [2] was less than 6.00 in each case. Further, the maximum response (Emax) in test [1] (setting [4]) and in test [2] (setting [5]) was less than 100% throughout.

As to `CC[C@]1(O)CC[C@H]2C(=CC[C@@H]3[C@@H]2CC[C@]2(C)[C@@H]([C@H](C)[C@@H](O)CCC(C)C)CC[C@@H]32)C1` [Compound 44, (3S,8R,9S,10R,13S,14S,17R)-3-ethyl-17-((2S,3S)-3-hydroxy-6-methylheptan-2-yl)-13-methyl-2,3,4,7,8,9,10,11,12,13,14,15,16,17-tetradecahydro-1H-cyclopenta[a]phenanthren-3-ol], the negative logarithm of the EC50 (pEC50) in test [1] (setting [3]) and in test [2] was less than 6.00 in each case. Moreover, the Emax in test [1] (setting [4]) and in test [2] (setting [5]) was less than 100% throughout.

For the compound `CC(C)CC[C@@H](O)[C@@H](C)[C@H]1CC[C@H]2[C@@H]3CC[C@H]4C[C@@](C)(O)CC[C@]4(C)[C@H]3CC[C@]12C` [Compound 47, (3S,5S,8R,9S,10S,13S,14S,17R)-17-((2S,3R)-3-hydroxy-6-methylheptan-2-yl)-3,10,13-trimethylhexadecahydro-1H-cyclopenta[a]phenanthren-3-ol], the negative-log EC50 (pEC50) in test [1] (setting [3]) and in test [2] was less than 6.00 in each case. The maximal effect (Emax) in test [1] (setting [4]) and in test [2] (setting [5]) was less than 100% each time.

With `CC[C@]1(O)CC[C@@]2(C)C(=CC[C@H]3[C@@H]4CC[C@H]([C@H](C)[C@@H](O)CC5CCC(C)(C)CC5)[C@@]4(C)CC[C@@H]32)C1` [Compound 49, (3S,8S,9S,10R,13S,14S,17R)-17-((2S,3S)-4-(4,4-dimethylcyclohexyl)-3-hydroxybutan-2-yl)-3-ethyl-10,13-dimethyl-2,3,4,7,8,9,10,11,12,13,14,15,16,17-tetradecahydro-1H-cyclopenta[a]phenanthren-3-ol], the pEC50 in test [1] (setting [3]) and in test [2] was less than 6.00 throughout. The Emax in test [1] (setting [4]) and in test [2] (setting [5]) was less than 100% in each case.

Take `CC[C@]1(O)CC[C@@]2(C)C(=CC[C@H]3[C@@H]4CC[C@H]([C@H](C)[C@H](O)CCC(C)C)[C@@]4(C)CC[C@@H]32)C1` [Compound 52, (3S,8S,9S,10R,13S,14S,17R)-3-ethyl-17-((2S,3R)-3-hydroxy-6-methylheptan-2-yl)-10,13-dimethyl-2,3,4,7,8,9,10,11,12,13,14,15,16,17-tetradecahydro-1H-cyclopenta[a]phenanthren-3-ol]: the negative logarithm of the EC50 (pEC50) in test [1] (setting [3]) and in test [2] was less than 6.00 each time. The Emax in test [1] (setting [4]) and in test [2] (setting [5]) was less than 100% in each case.

Regarding `CC(C)CC[C@H](O)[C@@H](C)[C@H]1CC[C@H]2[C@@H]3CC=C4C[C@@](C)(O)CC[C@]4(C)[C@H]3CC[C@]12C` [Compound 75, (3S,8S,9S,10R,13S,14S,17R)-17-((2S,3S)-3-hydroxy-6-methylheptan-2-yl)-3,10,13-trimethyl-2,3,4,7,8,9,10,11,12,13,14,15,16,17-tetradecahydro-1H-cyclopenta[a]phenanthren-3-ol], the negative logarithm of the EC50 (pEC50) in test [1] (setting [3]) and in test [2] was less than 6.00 each time. The Emax in test [1] (setting [4]) and in test [2] (setting [5]) was less than 100% in each case.

The values are drawn from patent publication US11613556B2, “Oxysterols and methods of use thereof” (Sage Therapeutics, Inc., priority 2016, dated 2023).
